Data from patent US20250127905A1, “GLUTARIMIDE COMPOUND AND USE THEREOF” (MEDSHINE DISCOVERY INC., priority 2021, published 2025).
Structures can show the parent of a compound that is named as a salt.

Experiments:
[1] = Pharmacokinetic evaluation in mice, experimental operation B (C57BL/6N); type: in vivo; settings: C57BL/6N mice
Description: In this study, CD-1 or C57BL/6N male mice were selected as test animals, and LC/MS/MS method was used to quantify plasma concentrations of the test compound intravenously injected or intragastrically administered to mice at different time points, so as to evaluate the pharmacokinetic profile of the test drug in mice.
CD-1 mice (male, 20 to 35 g, 7 to 10 weeks old, Beijing Vital River) or C57BL/6N mice (male, 20 to 30 g, 7 to 10 weeks old, Beijing Vital River)
A clarified solution or suspension of the test compound was injected into C57BL/6N mice (overnight fasting) via the tail vein (vehicle: 5% DMSO/10% Solutol/85% H2O), or intragastrically administered into C57BL/6N mice (overnight fasting). For intravenous injection, […] of blood was collected via the cheek puncture at 0 h (pre-administration) and 0.083 h, 0.25 h, 0.5 h, 1 h, 2 h, 4 h, 6 h, 8 h, and 24 h after administration, and placed in an anticoagulant tube added with heparin sodium. The mixture was thoroughly vortexed and mixed, and centrifuged at 6000 g for 3 minutes at 2 to 8° C. For oral administration, blood was collected via the cheek puncture at 0 h (pre-administration) and 0.083 h, 0.25 h, 1 h, 2 h, 4 h, 6 h, 8 h, and 24 h after administration, and placed in an anticoagulant tube added with heparin sodium. The mixture was thoroughly vortexed and mixed, and centrifuged at 6000 g for 3 minutes at 2 to 8° C. Plasma concentrations were determined by LC-MS/MS method, and relevant pharmacokinetic parameters were calculated using Phoenix WinNonlin 8.2.0 pharmacokinetic software with non-compartmental model linear-log trapezoidal method.

[2] = target: T1, IRAK4 (Homo sapiens, UniProt Q9NWZ3); assay: Target protein degradation effect in K562 IRAK4-HiBiT cells (Nano-Glo HiBiT); type: cell-based; settings: incubated 16 to 18 hours
T1 construct: expressed in transfected cells; host or cells: K562 IRAK4-HiBiT cells
T1 sequence (Q9NWZ3 1-460): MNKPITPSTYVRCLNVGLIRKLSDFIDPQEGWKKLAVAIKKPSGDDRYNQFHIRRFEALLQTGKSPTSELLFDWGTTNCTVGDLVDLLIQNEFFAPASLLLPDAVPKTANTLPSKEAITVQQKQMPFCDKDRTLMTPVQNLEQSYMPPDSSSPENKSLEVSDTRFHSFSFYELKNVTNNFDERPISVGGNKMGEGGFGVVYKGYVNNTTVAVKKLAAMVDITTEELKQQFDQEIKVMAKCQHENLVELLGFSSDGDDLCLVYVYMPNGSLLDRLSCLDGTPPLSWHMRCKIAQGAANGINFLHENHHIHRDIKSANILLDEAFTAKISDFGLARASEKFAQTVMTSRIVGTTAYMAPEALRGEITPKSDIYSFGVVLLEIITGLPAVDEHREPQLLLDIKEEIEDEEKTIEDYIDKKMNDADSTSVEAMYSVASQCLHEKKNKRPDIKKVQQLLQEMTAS
Procedure: Experimental purpose: In this experiment, the degradation effect of the test compound on the target protein IRAK4 in K562 IRAK4-HiBiT cells was detected.
• Cells: K562 IRAK4-HiBiT cells • Culture media: RPMI 1640+10% FBS+2 mM GlutaMax+1 mM sodium pyruvate+penicillin/streptomycin • Positive control: 1000 nM; negative control: 0.1% DMSO
• (1). The compound to be tested in powder form was dissolved in DMSO to 10 mM as a storage concentration, and 9 μL of the 10 mM compound to be tested was manually pipetted to column 1 and column 13 of an LDV plate using a pipette; • (2). 6 μL of DMSO was added to columns 2 to 12 and 14 to 24 using Multidrop Combi; [0688](3). the compound to be tested was 3-fold diluted (3 μL+6 μL) from columns 1 to 11 and 13 to 23 using Bravo; • (4). 25 nL of compound solution (columns 1 to 24 of the LDV plate) was transferred to an assay plate using Echo according to the plate layout; • (5). 25 nL of 1 mM positive control solution was transferred to the assay plate as a 100% degradation control (i.e., LC, HPE) and 25 nL of DMSO was transferred to the assay plate as a 0% control (i.e., HC, ZPE) using Echo.
• (1). The cell culture medium was discarded, and the cells were washed once with DPBS, digested with trypsin, and counted to prepare a cell suspension of […]; • (2). 25 µL/well of cell suspension was added to the assay plate containing the compound to be tested using Multidrop Combi at medium speed; • (3). the assay plate containing cells was returned to an incubator with 5% CO2 at 37° C. and incubated for 16 to 18 hours.
• (1). 25 µL/well of assay reagent (NanoGlo lysis buffer+substrate+LgBit protein) was added to the assay plate using Multidrop Combi at high speed, and the plate was shaken for 10 minutes; • (2). the plate was centrifuged at 2000 rpm for 1 minute to remove air bubbles; • (3). the plate was read on Envision using US Luminescence detection method.
The inhibition rate (IR) of the test compound was calculated using the following formula: IR (%)=(RLU vehicle control−RLU compound)/(RLU vehicle control−RLU positive control)×100%, and the vehicle control is the blank control. The inhibition rates of compounds at different concentrations were calculated in Excel, and then XLFit software was used to plot inhibition curves and calculate relevant parameters, including minimum inhibition rate, maximum inhibition rate, and DC50.

[3] = Intragastric administration 10 mg/kg

Area under the drug-time curve (0-inf) [1, 3]: 2.51 µM·h
Peak concentration [1, 3]: 0.4 µM
Time to peak concentration [1, 3]: 1.33 h
Area under the drug-time curve (0-inf) ([1]; Intravenous injection 2 mg/kg): 1.45 µM·h
bioavailability ([1]; male, mouse, plasma, IV 2 mg/kg, PO 10 mg/kg, read-out: Bioavailability F): 34.6%
clearance ([1]; male, mouse, plasma, Intravenous injection 2 mg/kg): 27.6 mL/min/kg
Vd ([1]; male, mouse, plasma, Intravenous injection 2 mg/kg, read-out: Apparent volume of distribution): 4.82 L/kg
half-life ([1]; male, mouse, plasma, Intravenous injection 2 mg/kg, read-out: Elimination half-life (converted)): 4.25 h
DC50 [2]: 4.12 nM
Maximum inhibition rate [2]: 106.70%
Compound: O=C1CCC(c2noc3c(NC(=O)CN4CCN(C[C@H]5CC[C@H](n6cc(NC(=O)c7cnn8ccc(N9C[C@H]%10C[C@@H]9CO%10)nc78)c(C(F)F)n6)CC5)CC4)cccc23)C(=O)N1 (stereo partly shown) [Hydrochloride of WX015]
